Test results taken from patent publication US9655904B2, “Substituted benzoazepines as toll-like receptor modulators” (VentiRx Pharmaceuticals, Inc., priority 2009, dated 2017).

Tests used:
Assay type in all cases: cell-based
TLR8 [1] = target: T1, TLR8 (Homo sapiens, UniProt Q9NR97); test: MC50 values for TLR8 activity (test not specified; procedures of Gorden et al. and Zhu et al.)
T1 sequence (Q9NR97 27-1041): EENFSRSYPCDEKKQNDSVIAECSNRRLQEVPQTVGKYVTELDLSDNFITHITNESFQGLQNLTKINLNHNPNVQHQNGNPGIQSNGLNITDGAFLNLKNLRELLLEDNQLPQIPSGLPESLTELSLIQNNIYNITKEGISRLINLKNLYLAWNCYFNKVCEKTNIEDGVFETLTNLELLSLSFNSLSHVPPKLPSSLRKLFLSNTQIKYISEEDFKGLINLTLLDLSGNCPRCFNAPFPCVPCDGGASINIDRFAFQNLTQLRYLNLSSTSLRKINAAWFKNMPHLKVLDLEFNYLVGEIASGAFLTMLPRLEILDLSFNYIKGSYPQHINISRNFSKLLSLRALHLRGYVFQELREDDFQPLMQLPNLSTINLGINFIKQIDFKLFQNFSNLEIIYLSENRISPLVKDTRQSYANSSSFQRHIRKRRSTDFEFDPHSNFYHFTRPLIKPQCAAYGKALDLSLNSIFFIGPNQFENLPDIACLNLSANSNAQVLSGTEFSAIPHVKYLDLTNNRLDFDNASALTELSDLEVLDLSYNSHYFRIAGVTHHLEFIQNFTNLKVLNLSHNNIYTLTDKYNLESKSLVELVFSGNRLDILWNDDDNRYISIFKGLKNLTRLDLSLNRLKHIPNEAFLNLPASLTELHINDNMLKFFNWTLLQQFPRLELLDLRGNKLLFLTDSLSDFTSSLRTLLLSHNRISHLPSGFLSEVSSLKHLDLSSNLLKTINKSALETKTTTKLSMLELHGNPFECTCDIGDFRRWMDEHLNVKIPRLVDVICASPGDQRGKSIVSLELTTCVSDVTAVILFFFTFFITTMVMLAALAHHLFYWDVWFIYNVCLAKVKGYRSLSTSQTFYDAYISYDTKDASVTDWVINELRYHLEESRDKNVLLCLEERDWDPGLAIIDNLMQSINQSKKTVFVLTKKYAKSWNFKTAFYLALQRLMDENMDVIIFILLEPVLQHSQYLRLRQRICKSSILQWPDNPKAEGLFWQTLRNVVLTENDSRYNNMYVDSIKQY
Excerpt: (§1) Activity of the compounds can be assessed according to procedures described in, e.g., Gorden et al., Journal of Immunology 177, pp. 8164-8170 (2006) and Zhu et al., Molecular Immunology, vol. 45 (11), pp. 3238-3242 (2008).
MC50 values for TLR8 activity are, for example, as shown below: […]

TLR8 [2] = target: T1, TLR8; test: PBMC assay for TLR8 (TNFα in supernatants by ELISA); set-up: Peripheral blood mononuclear cells (PBMCs) from human blood were isolated; endogenous in cells; host or cells: human PBMCs; conditions: human PBMCs incubated with compound overnight, MC50 = concentration at which 50% of maximum induction is seen
Description: (§2) Peripheral blood mononuclear cells (PBMCs) from human blood were isolated using BD Vacutainer Cell Preparation Tubes with sodium citrate. Cells were incubated with compound overnight. TLR8 activity was assayed by measuring the amount of TNFα in supernatants by ELISA. TLR7 activity was assayed by measuring the amount of IFNα in supernatants by ELISA (R&D Systems). […] The results of this assay are shown below in Tables 2 and 3.
(§3) MC50 numbers are represented as factors of ten, for example, + indicates an MC50 value of X 10^4, or a value in the tens of thousands of nanomolar (nM range); ++ indicates an MC50 value of X 10^3, or a value in the thousands; +++ indicates an MC50 value of X 10^2, or a value in the hundreds; and ++++ indicates an MC50 value of X 10^1 or 10^0, or a value in the tens or ones.

TLR7 [3] = target: T2, TLR7 (Homo sapiens, UniProt Q9NYK1); test: PBMC assay for TLR7 (IFNα in supernatants by ELISA); set-up: Peripheral blood mononuclear cells (PBMCs) from human blood were isolated; endogenous in cells; host or cells: human PBMCs; conditions: human PBMCs incubated with compound overnight, MC50 = concentration at which 50% of maximum induction is seen
T2 sequence (Q9NYK1 27-1049): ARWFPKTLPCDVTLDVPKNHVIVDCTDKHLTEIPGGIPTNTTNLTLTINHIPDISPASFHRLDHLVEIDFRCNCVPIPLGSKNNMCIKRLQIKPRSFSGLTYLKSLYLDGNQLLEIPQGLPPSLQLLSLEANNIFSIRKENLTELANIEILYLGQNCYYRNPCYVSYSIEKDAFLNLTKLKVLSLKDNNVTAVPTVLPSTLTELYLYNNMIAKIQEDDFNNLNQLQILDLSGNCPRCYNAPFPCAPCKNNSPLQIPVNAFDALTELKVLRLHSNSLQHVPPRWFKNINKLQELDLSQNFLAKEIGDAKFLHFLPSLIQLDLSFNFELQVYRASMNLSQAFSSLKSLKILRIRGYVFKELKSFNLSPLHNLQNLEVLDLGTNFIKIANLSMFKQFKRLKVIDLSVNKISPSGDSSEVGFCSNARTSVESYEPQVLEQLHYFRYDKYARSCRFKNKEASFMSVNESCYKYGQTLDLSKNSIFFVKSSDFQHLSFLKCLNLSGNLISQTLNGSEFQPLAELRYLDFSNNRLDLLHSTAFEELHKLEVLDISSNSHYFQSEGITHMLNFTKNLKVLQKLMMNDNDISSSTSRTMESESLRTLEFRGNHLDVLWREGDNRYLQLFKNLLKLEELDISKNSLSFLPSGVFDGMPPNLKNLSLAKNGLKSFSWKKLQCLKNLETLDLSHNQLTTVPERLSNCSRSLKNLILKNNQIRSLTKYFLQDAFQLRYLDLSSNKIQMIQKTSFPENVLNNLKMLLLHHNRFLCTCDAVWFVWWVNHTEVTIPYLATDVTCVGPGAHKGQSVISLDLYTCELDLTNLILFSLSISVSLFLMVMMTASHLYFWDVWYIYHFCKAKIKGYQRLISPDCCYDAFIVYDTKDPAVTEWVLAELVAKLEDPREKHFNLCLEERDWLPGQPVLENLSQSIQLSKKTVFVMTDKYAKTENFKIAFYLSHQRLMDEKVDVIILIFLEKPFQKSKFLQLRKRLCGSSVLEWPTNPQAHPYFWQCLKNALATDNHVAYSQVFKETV
Description: as §2, §3

TLR7 [4] = target: T2, TLR7; test: MC50 values for TLR7 activity (test not specified; procedures of Gorden et al. and Zhu et al.)
Excerpt: as §1
MC50 values for TLR7 activity are, for example, as shown below: […]

EC50 (TLR8 [1]) [nM]	EC50 (TLR8 [2]) [nM]	EC50 (TLR7 [3]) [nM]	EC50 (TLR7 [4]) [nM]	Structure (SMILES)
8	1 to 100	1000 to 10000		CCCN(CCC)C(=O)C1=Cc2ccc(-c3cncc(CO)c3)cc2N=C(N)C1 [Compound 183, (1E,4E)-2-amino-8-(5-(hydroxymethyl)pyridin-3-yl)-N,N-dipropyl-3H-benzo[b]azepine-4-carboxamide]
	1 to 100	1000 to 10000		CCOC(=O)C1=Cc2ccc(-c3cncc(CO)c3)cc2N=C(N)C1 [Compound 199, (1E,4E)-ethyl 2-amino-8-(5-(hydroxymethyl)pyridin-3-yl)-3H-benzo[b]azepine-4-carboxylate]
	100 to 1000	1000 to 10000		CCCN(CCCO)C(=O)C1=Cc2ccc(-c3ccc(CC(=O)OC)cc3)cc2N=C(N)C1 [Compound 213, Methyl 2-(4-((1E,4E)-2-amino-4-((3-hydroxypropyl)(propyl)carbamoyl)-3H-benzo[b]azepin-8-yl)phenyl)acetate]
54	1 to 100	1000 to 10000		CCCN(CCCO)C(=O)C1=Cc2ccc(-c3ccc(CC(=O)OCC)cc3)cc2N=C(N)C1 [Compound 214, Ethyl 2-(4-((1E,4E)-2-amino-4-((3-hydroxypropyl)(propyl)carbamoyl)-3H-benzo[b]azepin-8-yl)phenyl)acetate]
	1 to 100	10000 to 100000		CCCN(CCCO)C(=O)C1=Cc2ccc(-c3ccc(CC(=O)OC(C)C)cc3)cc2N=C(N)C1 [Compound 215, Isopropyl 2-(4-((1E,4E)-2-amino-4-((3-hydroxypropyl)(propyl)carbamoyl)-3H-benzo[b]azepin-8-yl)phenyl)acetate]
	1 to 100	10000 to 100000		CCCN(CCCO)C(=O)C1=Cc2ccc(-c3ccc(CC(=O)OCC(C)C)cc3)cc2N=C(N)C1 [Compound 216, Isobutyl 2-(4-((1E,4E)-2-amino-4-((3-hydroxypropyl)(propyl)carbamoyl)-3H-benzo[b]azepin-8-yl)phenyl)acetate]
	1000 to 10000	1000 to 10000		CCCN(CCCO)C(=O)C1=Cc2ccc(-c3ccc(CCC(=O)OCC(C)C)cc3)cc2N=C(N)C1 [Compound 219, Isobutyl 3-(4-((1E,4E)-2-amino-4-((3-hydroxypropyl)(propyl)carbamoyl)-3H-benzo[b]azepin-8-yl)phenyl)propanoate]
33	1 to 100	100 to 1000	358	CCCN(CCCO)C(=O)C1=Cc2ccc(-c3ccc4c(c3)C(=O)OC4)cc2N=C(N)C1 [Compound 222, (1E,4E)-2-Amino-N-(3-hydroxypropyl)-8-((3-oxo-1,3-dihydroisobenzofuran-5-yl)-N-propyl-3H-benzo[b]azepine-4-carboxamide]
195	100 to 1000	1000 to 10000		CCCN(CCC)C(=O)C1=Cc2ccc(-c3ccc(C4CCOC4=O)cc3)cc2N=C(N)C1 (stereo not shown) [Compound 223, (1E,4E)-2-Amino-8-(4-(2-oxotetrahydrofuran-3-yl)phenyl)-N,N-dipropyl-3H-benzo[b]azepine-4-carboxamide]
363	100 to 1000	10000 to 100000		CCCN(CCC)C(=O)C1=Cc2ccc(-c3ccc(C(O)CO)cc3)cc2N=C(N)C1 (stereo not shown) [Compound 224, (1E,4E)-2-amino-8-(4-(1,2-dihydroxyethyl)phenyl)-N,N-dipropyl-3H-benzo[b]azepine-4-carboxamide]
	100 to 1000	10000 to 100000		CCCN(CCC)C(=O)C1=Cc2ccc(-c3ccc(C4COC(=O)O4)cc3)cc2N=C(N)C1 (stereo not shown) [Compound 225, (1E,4E)-2-amino-8-(4-(2-oxo-1,3-dioxolan-4-yl)phenyl)-N,N-dipropyl-3H-benzo[b]azepine-4-carboxamide]
